± gives the standard deviation of the averaged measurements.
Legend:
[1] = compound: CCc1cc(Nc2nccc(-c3c(-c4ccc(OC)c(C(=O)Nc5c(F)cccc5F)c4)nc4ccccn34)n2)c(OC)cc1N1CCC(N2CCN(S(C)(=O)=O)CC2)CC1; assay: surviving fraction relative to DMSO-only wells; higher = less growth inhibition; conditions: exposure time: 5 days
Summary of the method: (§1)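 Viability was scored with CellTiter-Glo luminescence and normalised to the median of DMSO-only wells as surviving fraction. Beforehand, log-phase tumour cell lines were seeded at 250–500 cells per well in 384-well plates, allowed 24 hours, and exposed continuously for five days to inhibitors at 0.5, 1, 5, 10, 50, 100, 500 and 1000 nM. Only lines whose three screens gave replicate Pearson r >0.7 and median Z' >0.3 were kept.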

[2] = compound: Cc1cn(-c2cc(NC(=O)c3ccc(C)c(Nc4nccc(-c5cccnc5)n4)c3)cc(C(F)(F)F)c2)cn1 [NILOTINIB]; assay: as above; conditions: exposure time: 5 days
Summary of the method: as §1

| Test System | surviving fraction ([1]; 0.5 nM) | surviving fraction ([1]; 1 nM) | surviving fraction ([1]; 5 nM) | surviving fraction ([1]; 10 nM) | surviving fraction ([1]; 50 nM) | surviving fraction ([1]; 100 nM) | surviving fraction ([1]; 500 nM) | surviving fraction ([1]; 1000 nM) | surviving fraction ([2]; 0.5 nM) | surviving fraction ([2]; 1 nM) | surviving fraction ([2]; 5 nM) | surviving fraction ([2]; 10 nM) | surviving fraction ([2]; 50 nM) | surviving fraction ([2]; 100 nM) | surviving fraction ([2]; 500 nM) | surviving fraction ([2]; 1000 nM) |
| --- | --- | --- | --- | --- | --- | --- | --- | --- | --- | --- | --- | --- | --- | --- | --- | --- |
| SUM149 BREAST | 1.07 ± 0.059 | 1.14 ± 0.027 | 1.09 ± 0.035 | 1.12 ± 0.037 | 1.06 ± 0.14 | 1.11 ± 0.13 | 1.08 ± 0.081 | 1.05 ± 0.12 | 0.884 ± 0.092 | 0.895 ± 0.024 | 0.971 ± 0.057 | 0.833 ± 0.072 | 0.898 ± 0.053 | 0.786 ± 0.061 | 0.872 ± 0.071 | 0.833 ± 0.053 |
| SUM149.B1*.S BREAST | 0.994 ± 0.024 | 1.05 ± 0.033 | 1.05 ± 0.051 | 1.1 ± 0.02 | 1.01 ± 0.047 | 1.081 ± 0.01 | 1.05 ± 0.082 | 1.04 ± 0.048 | 1.09 ± 0.026 | 1.08 ± 0.051 | 1.163 ± 0.0038 | 1.12 ± 0.031 | 1.1 ± 0.046 | 1.13 ± 0.018 | 1.18 ± 0.035 | 1.11 ± 0.036 |
| SUM159 BREAST | 1.1 ± 0.27 | 1.17 ± 0.28 | 1.15 ± 0.24 | 1.14 ± 0.2 | 1.11 ± 0.21 | 1.12 ± 0.19 | 1.07 ± 0.14 | 1.08 ± 0.18 | 1.1 ± 0.039 | 1.1 ± 0.021 | 1.11 ± 0.021 | 1.09 ± 0.032 | 1.06 ± 0.023 | 1.077 ± 0.0068 | 1.055 ± 0.0095 | 1.06 ± 0.016 |
| SYO1 SYNOVIAL | 0.945 ± 0.041 | 0.992 ± 0.031 | 0.948 ± 0.048 | 0.945 ± 0.045 | 0.969 ± 0.034 | 1.02 ± 0.044 | 0.949 ± 0.03 | 0.895 ± 0.022 | 0.9541 ± 0.0069 | 0.979 ± 0.064 | 0.97 ± 0.062 | 0.974 ± 0.036 | 0.936 ± 0.036 | 0.976 ± 0.056 | 0.805 ± 0.062 | 0.743 ± 0.032 |
| T47D BREAST | 1.06 ± 0.042 | 1.04 ± 0.027 | 1.05 ± 0.031 | 1.07 ± 0.016 | 1.06 ± 0.056 | 1.14 ± 0.051 | 1.03 ± 0.036 | 0.997 ± 0.014 | 1.02 ± 0.041 | 1.065 ± 0.0097 | 1.07 ± 0.025 | 1.04 ± 0.045 | 1.07 ± 0.051 | 1.06 ± 0.026 | 1.05 ± 0.041 | 1.08 ± 0.038 |
| U2OS BONE | 0.992 ± 0.02 | 1 ± 0.017 | 1.06 ± 0.025 | 1.031 ± 0.0015 | 1.06 ± 0.023 | 1.06 ± 0.035 | 1.01 ± 0.013 | 0.975 ± 0.019 | 1.03 ± 0.032 | 1.02 ± 0.037 | 1.11 ± 0.032 | 1.11 ± 0.06 | 1.07 ± 0.059 | 1.13 ± 0.088 | 1.11 ± 0.095 | 1.09 ± 0.095 |
| VCAP PROSTATE | 1.02 ± 0.1 | 1.05 ± 0.072 | 0.986 ± 0.12 | 1.07 ± 0.042 | 0.984 ± 0.091 | 1.05 ± 0.03 | 1.03 ± 0.055 | 0.9673 ± 0.0061 | 0.999 ± 0.1 | 1.03 ± 0.088 | 1.16 ± 0.13 | 1.06 ± 0.076 | 1.02 ± 0.075 | 0.966 ± 0.073 | 0.952 ± 0.14 | 0.862 ± 0.067 |
| VP229 BREAST | 1.13 ± 0.059 | 1.08 ± 0.033 | 1.24 ± 0.11 | 1.17 ± 0.063 | 1.09 ± 0.13 | 1.09 ± 0.052 | 1.18 ± 0.17 | 0.875 ± 0.12 | 1.24 ± 0.14 | 1.12 ± 0.11 | 1.04 ± 0.075 | 1.18 ± 0.24 | 1.05 ± 0.041 | 1.08 ± 0.094 | 1.28 ± 0.04 | 1.12 ± 0.059 |
| YAMATO SYNOVIAL | 1.32 ± 0.085 | 1.34 ± 0.1 | 1.44 ± 0.085 | 1.28 ± 0.023 | 1.36 ± 0.066 | 1.42 ± 0.1 | 1.2 ± 0.19 | 0.873 ± 0.091 | 1.18 ± 0.14 | 1.22 ± 0.016 | 1.28 ± 0.064 | 1.26 ± 0.1 | 1 ± 0.05 | 0.94 ± 0.096 | 0.771 ± 0.024 | 0.658 ± 0.031 |
| ZR751 BREAST | 0.886 ± 0.14 | 0.98 ± 0.062 | 0.876 ± 0.11 | 0.935 ± 0.1 | 0.87 ± 0.07 | 0.895 ± 0.12 | 0.928 ± 0.094 | 0.954 ± 0.093 | 1.05 ± 0.13 | 1.01 ± 0.11 | 1.069 ± 0.0042 | 1.03 ± 0.14 | 0.895 ± 0.03 | 0.834 ± 0.14 | 0.826 ± 0.058 | 0.66 ± 0.073 |

Reference: the supplement of paper PMC6045584
